Laboratory results published in patent publication US7863289B2, “Compounds and methods for kinase modulation, and indications therefor” (Plexxikon, Inc., priority 2006, dated 2011).

Key:
Assay type in all cases: biochemical
Kit = Kit (Homo sapiens, UniProt P10721); test: Kinase activity assay, Kit; conditions: under the test conditions employed; read-out: activity toward kinase Kit, IC50
Excerpt: (§1) Assays for the activity of kinases, including, but not limited to, B-Raf, B-Raf V600E, B-Raf […] and c-Raf-1 are known in the art, for example as described in U.S. patent application Ser. No. 11/473,347 (see Iso, PCT publication WO2007002433), the disclosure of which is hereby incorporated by reference in its entirety.

B-Raf V600E = B-Raf V600E (Homo sapiens, UniProt P15056, V600E); test: Kinase activity assay, B-Raf V600E; conditions: under the test conditions employed; read-out: activity toward kinase B-Raf V600E, IC50
Excerpt: as §1

B-Raf = B-Raf (Homo sapiens, UniProt P15056); test: Kinase activity assay, B-Raf; conditions: under the test conditions employed; read-out: activity toward kinase B-Raf, IC50
Excerpt: as §1

Fms = Fms (Homo sapiens, UniProt P07333); test: Kinase activity assay, Fms; conditions: under the test conditions employed; read-out: activity toward kinase Fms, IC50
Excerpt: as §1

Src = Src (Homo sapiens, UniProt P12931); test: Kinase activity assay, Src; conditions: under the test conditions employed; read-out: activity toward kinase Src, IC50
Chain of Src (P12931 whole entry): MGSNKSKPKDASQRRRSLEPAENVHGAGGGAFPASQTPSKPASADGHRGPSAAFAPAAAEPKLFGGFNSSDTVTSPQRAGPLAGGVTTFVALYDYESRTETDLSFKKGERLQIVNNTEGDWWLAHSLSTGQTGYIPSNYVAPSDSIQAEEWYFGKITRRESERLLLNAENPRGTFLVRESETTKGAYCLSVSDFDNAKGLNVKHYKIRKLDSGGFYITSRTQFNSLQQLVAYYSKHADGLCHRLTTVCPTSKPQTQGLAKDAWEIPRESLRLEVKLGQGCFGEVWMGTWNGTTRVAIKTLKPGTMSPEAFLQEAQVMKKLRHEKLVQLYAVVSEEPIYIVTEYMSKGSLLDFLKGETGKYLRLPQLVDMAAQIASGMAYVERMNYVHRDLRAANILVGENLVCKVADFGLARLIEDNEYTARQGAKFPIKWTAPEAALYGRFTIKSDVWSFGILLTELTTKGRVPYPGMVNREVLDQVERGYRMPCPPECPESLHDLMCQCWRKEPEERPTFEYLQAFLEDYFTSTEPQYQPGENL
Excerpt: as §1

Kdr = Kdr (Homo sapiens, UniProt P35968); test: Kinase activity assay, Kdr; conditions: under the test conditions employed; read-out: activity toward kinase Kdr, IC50
Chain of Kdr (P35968 20-1356): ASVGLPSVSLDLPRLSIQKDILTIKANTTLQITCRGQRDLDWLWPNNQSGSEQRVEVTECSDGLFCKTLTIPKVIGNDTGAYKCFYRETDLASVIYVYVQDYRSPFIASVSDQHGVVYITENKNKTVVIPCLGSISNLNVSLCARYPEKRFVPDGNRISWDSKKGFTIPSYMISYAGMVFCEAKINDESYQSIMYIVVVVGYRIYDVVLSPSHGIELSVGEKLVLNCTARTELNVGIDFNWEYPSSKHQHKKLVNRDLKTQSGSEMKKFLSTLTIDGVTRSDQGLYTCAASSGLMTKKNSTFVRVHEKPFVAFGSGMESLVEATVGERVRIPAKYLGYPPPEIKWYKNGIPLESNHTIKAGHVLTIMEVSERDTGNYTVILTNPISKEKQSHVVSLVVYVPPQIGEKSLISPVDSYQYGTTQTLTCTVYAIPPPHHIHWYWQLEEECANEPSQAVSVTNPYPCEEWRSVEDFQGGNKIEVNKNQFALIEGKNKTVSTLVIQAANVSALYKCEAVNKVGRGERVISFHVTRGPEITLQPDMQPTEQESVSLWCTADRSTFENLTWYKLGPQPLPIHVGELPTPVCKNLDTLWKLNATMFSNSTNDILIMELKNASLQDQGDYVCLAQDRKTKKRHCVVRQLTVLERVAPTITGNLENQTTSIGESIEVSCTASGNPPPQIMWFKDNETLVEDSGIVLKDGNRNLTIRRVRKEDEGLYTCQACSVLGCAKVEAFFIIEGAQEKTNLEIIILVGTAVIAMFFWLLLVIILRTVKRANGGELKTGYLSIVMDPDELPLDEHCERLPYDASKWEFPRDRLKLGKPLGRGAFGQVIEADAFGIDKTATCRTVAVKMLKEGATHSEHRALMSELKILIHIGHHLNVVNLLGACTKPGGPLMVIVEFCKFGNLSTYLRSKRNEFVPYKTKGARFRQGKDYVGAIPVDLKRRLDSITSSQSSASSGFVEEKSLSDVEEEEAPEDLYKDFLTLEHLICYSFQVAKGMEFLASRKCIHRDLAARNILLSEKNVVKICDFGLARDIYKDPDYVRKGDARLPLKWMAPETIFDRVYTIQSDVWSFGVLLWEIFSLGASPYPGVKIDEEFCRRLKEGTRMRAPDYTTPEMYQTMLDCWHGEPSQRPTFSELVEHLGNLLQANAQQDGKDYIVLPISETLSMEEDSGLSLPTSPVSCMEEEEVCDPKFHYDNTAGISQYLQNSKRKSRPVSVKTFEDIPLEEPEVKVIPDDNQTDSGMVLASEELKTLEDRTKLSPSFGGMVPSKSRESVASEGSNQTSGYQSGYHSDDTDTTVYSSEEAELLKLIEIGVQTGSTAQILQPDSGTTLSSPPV
Excerpt: as §1

c-Raf-1 = c-Raf-1 (Homo sapiens, UniProt P04049); test: Kinase activity assay, c-Raf-1; conditions: under the test conditions employed; read-out: activity toward kinase c-Raf-1, IC50
Chain of c-Raf-1 (P04049 whole entry): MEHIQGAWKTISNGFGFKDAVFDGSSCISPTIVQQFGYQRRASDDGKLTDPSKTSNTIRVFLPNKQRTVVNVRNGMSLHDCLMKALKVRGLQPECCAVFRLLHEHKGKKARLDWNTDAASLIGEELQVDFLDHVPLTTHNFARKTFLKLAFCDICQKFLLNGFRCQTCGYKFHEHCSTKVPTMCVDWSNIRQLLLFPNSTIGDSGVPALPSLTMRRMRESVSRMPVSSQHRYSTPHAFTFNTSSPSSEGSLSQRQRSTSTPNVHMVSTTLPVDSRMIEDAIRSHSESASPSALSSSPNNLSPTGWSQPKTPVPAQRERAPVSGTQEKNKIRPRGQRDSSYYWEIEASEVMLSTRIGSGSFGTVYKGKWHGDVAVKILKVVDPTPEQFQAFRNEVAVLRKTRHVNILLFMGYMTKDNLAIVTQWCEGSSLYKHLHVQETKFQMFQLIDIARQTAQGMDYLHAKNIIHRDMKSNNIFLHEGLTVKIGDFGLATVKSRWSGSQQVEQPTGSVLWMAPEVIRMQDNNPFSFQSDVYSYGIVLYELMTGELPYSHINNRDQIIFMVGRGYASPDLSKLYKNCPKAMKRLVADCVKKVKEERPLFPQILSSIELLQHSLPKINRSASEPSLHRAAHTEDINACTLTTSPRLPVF
Excerpt: as §1

B-Raf V600E/T529I = B-Raf V600E/T529I (Homo sapiens, UniProt P15056, T529I/V600E); test: Kinase activity assay, B-Raf V600E/T529I; conditions: under the test conditions employed; read-out: activity toward kinase B-Raf V600E/T529I, IC50
Excerpt: as §1

Btk = Btk (Homo sapiens, UniProt Q06187); test: Kinase activity assay, Btk; conditions: under the test conditions employed; read-out: activity toward kinase Btk, IC50
Chain of Btk (Q06187 whole entry): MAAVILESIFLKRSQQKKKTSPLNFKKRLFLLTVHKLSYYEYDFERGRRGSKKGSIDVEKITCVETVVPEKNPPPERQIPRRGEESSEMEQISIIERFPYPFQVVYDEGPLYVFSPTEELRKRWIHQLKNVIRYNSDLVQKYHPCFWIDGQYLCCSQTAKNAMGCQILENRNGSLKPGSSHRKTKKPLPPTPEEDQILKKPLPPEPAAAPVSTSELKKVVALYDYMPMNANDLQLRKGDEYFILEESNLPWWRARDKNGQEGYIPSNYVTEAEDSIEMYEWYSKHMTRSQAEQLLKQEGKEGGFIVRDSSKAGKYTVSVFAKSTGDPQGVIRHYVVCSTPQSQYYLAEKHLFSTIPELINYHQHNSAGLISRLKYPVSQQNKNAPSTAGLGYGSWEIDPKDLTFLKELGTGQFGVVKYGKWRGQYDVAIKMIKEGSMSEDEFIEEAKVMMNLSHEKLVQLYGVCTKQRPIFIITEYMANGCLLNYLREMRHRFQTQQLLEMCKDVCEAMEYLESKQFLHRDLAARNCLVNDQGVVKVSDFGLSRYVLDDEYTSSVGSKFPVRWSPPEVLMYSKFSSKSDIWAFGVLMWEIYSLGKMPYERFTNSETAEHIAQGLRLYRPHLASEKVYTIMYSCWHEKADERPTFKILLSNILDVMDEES
Excerpt: as §1

TEC = target: T1, TEC (Homo sapiens, UniProt P42680); test: Kinase activity assay, TEC; conditions: under the test conditions employed; read-out: activity toward kinase TEC, IC50
T1 sequence (P42680 1-631): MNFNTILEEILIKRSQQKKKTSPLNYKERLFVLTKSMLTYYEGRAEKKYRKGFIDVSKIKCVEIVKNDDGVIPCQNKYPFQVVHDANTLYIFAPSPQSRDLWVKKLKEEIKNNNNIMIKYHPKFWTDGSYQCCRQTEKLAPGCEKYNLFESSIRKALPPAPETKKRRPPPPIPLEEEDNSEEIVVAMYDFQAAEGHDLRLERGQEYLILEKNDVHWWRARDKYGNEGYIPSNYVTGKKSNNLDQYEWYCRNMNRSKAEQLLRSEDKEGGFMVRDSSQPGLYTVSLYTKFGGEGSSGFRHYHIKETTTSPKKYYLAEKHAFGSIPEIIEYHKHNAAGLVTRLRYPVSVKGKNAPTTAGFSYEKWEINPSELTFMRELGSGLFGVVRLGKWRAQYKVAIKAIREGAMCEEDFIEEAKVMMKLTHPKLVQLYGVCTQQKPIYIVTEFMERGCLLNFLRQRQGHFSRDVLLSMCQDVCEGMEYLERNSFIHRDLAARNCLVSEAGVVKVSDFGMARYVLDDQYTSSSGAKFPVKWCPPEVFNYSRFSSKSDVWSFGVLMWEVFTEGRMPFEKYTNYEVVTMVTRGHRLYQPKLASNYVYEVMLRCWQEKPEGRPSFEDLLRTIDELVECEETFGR
Excerpt: as §1

Flt1 = Flt1 (Homo sapiens, UniProt P17948); test: Kinase activity assay, Flt1; conditions: under the test conditions employed; read-out: activity toward kinase Flt1, IC50
Chain of Flt1 (P17948 27-1338): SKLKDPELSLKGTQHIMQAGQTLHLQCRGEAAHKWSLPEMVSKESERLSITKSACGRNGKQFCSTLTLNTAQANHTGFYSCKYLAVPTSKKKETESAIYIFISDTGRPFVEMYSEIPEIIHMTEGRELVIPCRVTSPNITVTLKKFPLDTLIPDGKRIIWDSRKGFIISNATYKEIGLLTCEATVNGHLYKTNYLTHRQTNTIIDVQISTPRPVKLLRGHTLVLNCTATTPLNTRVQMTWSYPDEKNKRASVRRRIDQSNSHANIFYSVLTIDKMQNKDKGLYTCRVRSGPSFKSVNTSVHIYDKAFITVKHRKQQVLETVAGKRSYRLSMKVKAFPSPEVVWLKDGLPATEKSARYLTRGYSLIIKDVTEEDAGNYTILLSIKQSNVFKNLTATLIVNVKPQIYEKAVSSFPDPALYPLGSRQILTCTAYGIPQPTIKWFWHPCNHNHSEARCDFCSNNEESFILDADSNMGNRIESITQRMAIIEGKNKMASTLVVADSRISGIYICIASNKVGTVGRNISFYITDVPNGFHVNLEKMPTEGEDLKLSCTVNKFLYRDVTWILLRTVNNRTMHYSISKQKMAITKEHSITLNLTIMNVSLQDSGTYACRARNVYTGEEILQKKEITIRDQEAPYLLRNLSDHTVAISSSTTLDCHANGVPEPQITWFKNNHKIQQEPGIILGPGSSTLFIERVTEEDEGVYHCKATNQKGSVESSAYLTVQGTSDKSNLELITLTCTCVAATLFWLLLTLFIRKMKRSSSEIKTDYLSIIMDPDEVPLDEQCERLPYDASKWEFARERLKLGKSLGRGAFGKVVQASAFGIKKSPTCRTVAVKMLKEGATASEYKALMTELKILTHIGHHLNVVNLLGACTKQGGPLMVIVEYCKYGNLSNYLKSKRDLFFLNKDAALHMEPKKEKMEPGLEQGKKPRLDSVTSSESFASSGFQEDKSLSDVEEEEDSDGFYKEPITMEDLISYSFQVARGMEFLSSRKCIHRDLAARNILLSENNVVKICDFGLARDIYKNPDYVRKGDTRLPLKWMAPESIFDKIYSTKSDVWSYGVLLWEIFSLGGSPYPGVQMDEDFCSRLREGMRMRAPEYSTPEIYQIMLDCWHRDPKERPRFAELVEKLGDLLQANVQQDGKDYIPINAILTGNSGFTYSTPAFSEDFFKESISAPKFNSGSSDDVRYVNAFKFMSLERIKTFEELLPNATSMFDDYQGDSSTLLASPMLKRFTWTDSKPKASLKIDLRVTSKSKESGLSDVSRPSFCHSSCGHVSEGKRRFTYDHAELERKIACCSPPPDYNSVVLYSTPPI
Excerpt: as §1

Jnk1 = Jnk1 (Homo sapiens, UniProt P45983); test: Kinase activity assay, Jnk1; conditions: under the test conditions employed; read-out: activity toward kinase Jnk1, IC50
Chain of Jnk1 (P45983 whole entry): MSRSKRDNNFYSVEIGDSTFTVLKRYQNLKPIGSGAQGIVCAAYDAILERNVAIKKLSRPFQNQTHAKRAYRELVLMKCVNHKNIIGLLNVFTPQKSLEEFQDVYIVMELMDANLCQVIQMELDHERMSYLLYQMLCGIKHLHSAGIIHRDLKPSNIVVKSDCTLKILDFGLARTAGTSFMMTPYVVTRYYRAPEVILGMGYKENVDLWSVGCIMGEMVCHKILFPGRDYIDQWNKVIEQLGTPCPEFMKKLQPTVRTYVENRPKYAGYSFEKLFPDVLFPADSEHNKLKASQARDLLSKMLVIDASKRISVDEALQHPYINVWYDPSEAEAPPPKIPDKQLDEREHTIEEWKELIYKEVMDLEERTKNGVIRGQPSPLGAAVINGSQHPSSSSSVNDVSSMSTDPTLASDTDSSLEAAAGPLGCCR
Excerpt: as §1

HGK = HGK (Homo sapiens, UniProt O95819); test: Kinase activity assay, HGK; conditions: under the test conditions employed; read-out: activity toward kinase HGK, IC50
Excerpt: as §1

Measured: IC50

O=C(c1c(F)ccc(NS(=O)(=O)c2ccc(-c3cnco3)s2)c1F)c1c[nH]c2ncc(Cl)cc12 [Compound P-0003, 5-Oxazol-5-yl-thiophene-2-sulfonic acid [3-(5-chloro-1H-pyrrolo[2,3-b]pyridine-3-carbonyl)-2,4-difluoro-phenyl]-amide]
not listed: Btk | TEC | Flt1 | Jnk1 | HGK
≤ 10 µM: all other assays above

O=C(c1c(F)ccc(NS(=O)(=O)c2ccc3oc(=O)ccc3c2)c1F)c1c[nH]c2ncc(Cl)cc12 [Compound P-0005, 2-Oxo-2H-chromene-6-sulfonic acid [3-(5-chloro-1H-pyrrolo[2,3-b]pyridine-3-carbonyl)-2,4-difluoro-phenyl]-amide]
not listed: Btk | TEC | Flt1 | Jnk1 | HGK
≤ 10 µM: all other assays above

O=C(c1c(F)ccc(NS(=O)(=O)c2ccc(-c3ccno3)s2)c1F)c1c[nH]c2ncc(Cl)cc12 [Compound P-0006, 5-Isoxazol-5-yl-thiophene-2-sulfonic acid [3-(5-chloro-1H-pyrrolo[2,3-b]pyridine-3-carbonyl)-2,4-difluoro-phenyl]-amide]
≤ 10 µM: Kit | B-Raf V600E | B-Raf | Fms | Src | c-Raf-1 | B-Raf V600E/T529I

O=C(c1c(F)ccc(NS(=O)(=O)c2ccc3nsnc3c2)c1F)c1c[nH]c2ncc(Cl)cc12 [Compound P-0013, Benzo[1,2,5]thiadiazoe-5-sulfonic acid [3-(5-chloro-1H-pyrrolo[2,3-b]pyridine-3-carbonyl)-2,4-difluoro-phenyl]-amide]
not listed: B-Raf V600E/T529I | TEC | Flt1 | Jnk1 | HGK
≤ 10 µM: all other assays above

O=C(c1c(F)ccc(NS(=O)(=O)c2cccc(OC(F)F)c2)c1F)c1c[nH]c2ncc(Cl)cc12 [Compound P-0016, N-[3-(5-Chloro-1H-pyrrolo[2,3-b]pyridine-3-carbonyl)-2,4-difluoro-phenyl]-3-difluoromethoxy-benzenesulfonamide]
not listed: B-Raf V600E/T529I | Btk | Jnk1 | HGK
≤ 10 µM: all other assays above

Cc1c[nH]c(-c2cnc3[nH]cc(C(=O)c4c(F)ccc(NS(=O)(=O)c5ccc(C(C)C)cc5)c4F)c3c2)n1 [Compound P-0019, N-{2,4-Difluoro-3-[5-(4-methyl-1H-imidazol-2-yl)-1H-pyrrolo[2,3-b]pyridine-3-carbonyl]-phenyl}-4-isopropyl-benzenesulfonamide]
≤ 10 µM: Kit | B-Raf V600E | B-Raf | Src | Jnk1 | Kdr | c-Raf-1

Cn1cc(-c2cnc3[nH]cc(C(=O)c4c(F)ccc(NS(=O)(=O)c5cccc(OC(F)F)c5)c4F)c3c2)cn1 [Compound P-0020]
not listed: B-Raf V600E/T529I | TEC
≤ 10 µM: all other assays above

CCCc1ccc(S(=O)(=O)Nc2ccc(F)c(C(=O)c3c[nH]c4ncc(-c5cnn(C)c5)cc34)c2F)cc1 [Compound P-0021, N-{2,4-Difluoro-3-[5-(1-methyl-1H-pyrazol-4-yl)-1H-pyrrolo[2,3-b]pyridine-3-carbonyl]-phenyl}-4-propyl-benzenesulfonamide]
not listed: B-Raf V600E/T529I | TEC | Flt1 | Jnk1 | HGK
≤ 10 µM: all other assays above

CC(C)c1ccc(S(=O)(=O)Nc2ccc(F)c(C(=O)c3c[nH]c4ncc(-c5cnn(C)c5)cc34)c2F)cc1 [Compound P-0022, N-{2,4-Difluoro-3-[5-(1-methyl-1H-pyrazol-4-yl)-1H-pyrrolo[2,3-b]pyridine-3-carbonyl]-phenyl}-4-isopropyl-benzenesulfonamide]
not listed: B-Raf V600E/T529I | TEC | Flt1 | Jnk1 | HGK
≤ 10 µM: all other assays above

CCCc1ccc(S(=O)(=O)Nc2ccc(F)c(C(=O)c3c[nH]c4ncc(-c5ncc(C)[nH]5)cc34)c2F)cc1 [Compound P-0023, N-{2,4-Difluoro-3-[5-(5-methyl-1H-imidazol-2-yl)-1H-pyrrolo[2,3-b]pyridine-3-carbonyl]-phenyl}-4-propyl-benzenesulfonamide]
not listed: B-Raf V600E/T529I | TEC | Flt1 | Jnk1 | HGK
≤ 10 µM: all other assays above

Cc1cnc(-c2cnc3[nH]cc(C(=O)c4c(F)ccc(NS(=O)(=O)c5cccc(OC(F)F)c5)c4F)c3c2)[nH]1 [Compound P-0024, 3-Difluoromethoxy-N-{2,4-difluoro-3-[5-(5-methyl-1H-imidazol-2-yl)-1H-pyrrolo[2,3-b]pyridine-3-carbonyl]-phenyl}-benzenesulfonamide]
≤ 10 µM: Kit | B-Raf V600E | B-Raf | Btk | Fms | Src | Kdr

Cc1cnc(-c2cnc3[nH]cc(C(=O)c4c(F)ccc(NS(=O)(=O)c5ccc(C(F)(F)F)cc5)c4F)c3c2)[nH]1 [Compound P-0025, N-{2,4-Difluoro-3-[5-(5-methyl-1H-imidazol-2-yl)-1H-pyrrolo[2,3-b]pyridine-3-carbonyl]-phenyl}-4-trifluoromethyl-benzenesulfonamide]
not listed: Fms | B-Raf V600E/T529I | Btk | TEC | HGK
≤ 10 µM: all other assays above

CCCc1ccc(S(=O)(=O)Nc2ccc(F)c(C(=O)c3c[nH]c4ncc(-c5nccn5C)cc34)c2F)cc1 [Compound P-0026, N-{2,4-Difluoro-3-[5-(1-methyl-1H-imidazol-2-yl)-1H-pyrrolo[2,3-b]pyridine-3-carbonyl]-phenyl}-4-propyl-benzenesulfonamide]
≤ 10 µM: Kit | B-Raf | Src | Kdr | Flt1

N#Cc1cnc2[nH]cc(C(=O)c3c(F)ccc(NS(=O)(=O)c4ccc(C(F)(F)F)cc4)c3F)c2c1 [Compound P-0031, N-[3-(5-Cyano-1H-pyrrolo[2,3-b]pyridine-3-carbonyl)-2,4-difluoro-phenyl]-4-trifluoromethyl-benzenesulfonamide]
≤ 10 µM: B-Raf V600E | B-Raf | Src | Flt1 | c-Raf-1
